Eight molecules from ChEMBL document CHEMBL5137095, “N-Benzyl Benzamide Derivatives as Selective Sub-Nanomolar Butyrylcholinesterase Inhibitors for Possible Treatment in Advanced Alzheimer's Disease” (J Med Chem, 2022) can be followed below.

Structures are written as SMILES. Activity calls are given as the source filed them. The calls are words filed in the database; no cut-off is given here.

Assay [1] deals with PC-12. The assay is described as follows: Neuroprotective activity against H2O2-induced cell damage in rat PC-12 cells at 5 uM pretreated for 2 hrs followed by H2O2 addition and measured after 24 hrs by MTT assay. In kind it is functional, cell-based. (In general: Tetrazolium dyes change colour on reduction, which living cells bring about.)
For assay [2], the system named is SH-SY5Y. The assay is described as follows: Neuroprotective activity against amyloid beta (1 to 42)-induced cell damage in human SH-SY5Y cells assessed as inhibition of ROS level pretreated for 2 hrs followed by amyloid beta (1 to 42) addition and measured after 24 hrs by DCFH-DA staining based fluorescence microscopy analysis. The assay is classed as functional. The conditions noted are these: time 26.0 hrs.

The test system of assay [3] is Mus musculus. Description: Cognitive enhancing effect in amyloid beta (1 to 42)-induced ICR mouse model assessed as decrease in IFN-gamma level in brain at 0.5 to 10, icv measured on day 14 by ELISA. The assay is classed as functional, organism-based. The conditions noted are these: dose 0.5-10 mg/kg, time 14.0 day.
Assay [4] has as its system Mus musculus. Description: Cognitive enhancing effect in amyloid beta (1 to 42)-induced ICR mouse model assessed as increase in ACh level in brain at 0.5 to 10, icv measured on day 14 by ELISA. The note with it: dose 0.5-10 mg/kg, time 14.0 day. The assay is classed as functional, organism-based. In general terms: An ELISA detects its analyte on a solid surface through an enzyme-linked reagent.

Assay [5] deals with Mus musculus. Description: Cognitive enhancing effect in amyloid beta (1 to 42)-induced ICR mouse model assessed as reduction in amyloid beta (1 to 42) peptide level in brain administered via icv measured on day 14 by ELISA. In kind it is functional, organism-based. The note with it: dose 0.5-10 mg/kg, time 14.0 day, DDE = dose-dependent effect.
In assay [6] the test system is Mus musculus. The assay is described as follows: Cognitive enhancing effect in amyloid beta (1 to 42)-induced ICR mouse model assessed as decrease in TNF-alpha level in brain at 0.5 to 10, icv measured on day 14 by ELISA. In kind it is functional, organism-based. The conditions noted are these: dose 0.5-10 mg/kg, time 14.0 day.
Assay [7] relates to Mus musculus. Description: Cognitive enhancing effect in amyloid beta (1 to 42)-induced ICR mouse model assessed as reduction in escape latency at 0.5 mg/kg, icv measured on day 14 by Morris Water maze method. The assay is classed as functional, organism-based. The note with it: time 14.0 day.
The test system of assay [8] is Mus musculus. Description: Cognitive enhancing effect in amyloid beta (1 to 42)-induced ICR mouse model assessed as reduction in latency at 2.5 mg/kg, icv measured on day 14 by Morris Water maze method. The assay is classed as functional, organism-based.
The test system of assay [9] is Mus musculus. The assay is described as follows: Cognitive enhancing effect in amyloid beta (1 to 42)-induced ICR mouse model assessed as reduction in latency at 1 mg/kg, icv measured on day 14 by Morris Water maze method. In kind it is functional, organism-based.
Assay [10] has as its system SH-SY5Y. Description: Neuroprotective activity against GA-induced cell damage in human SH-SY5Y cells pretreated for 2 hrs followed by GA addition and measured after 24 hrs by MTT assay. In kind it is functional, cell-based. The conditions noted are these: dose 0.1-5 µM, time 26.0 hrs, DDE = dose-dependent effect.
Assay [11] relates to SH-SY5Y. The assay is described as follows: Neuroprotective activity against amyloid beta (1 to 42)-induced cell damage in human SH-SY5Y cells pretreated for 2 hrs followed by amyloid beta (1 to 42) addition and measured after 24 hrs by MTT assay. The assay is classed as functional, cell-based. The conditions noted are these: dose 0.5-2 µM, time 26.0 hrs, DDE = dose-dependent effect.

Assay [12] concerns PC-12. The assay is described as follows: Neuroprotective activity against H2O2-induced cell damage in rat PC-12 cells pretreated for 2 hrs followed by H2O2 addition and measured after 24 hrs by MTT assay. The note with it: dose 2.5-10 µM, time 26.0 hrs, DDE = dose-dependent effect. The assay is classed as functional, cell-based.
The test system of assay [13] is Mus musculus. Description: Cognitive enhancing effect in amyloid beta (1 to 42)-induced ICR mouse model assessed as reduction in amyloid beta (1 to 42) peptide level in brain at 0.5 to 10 mg/kg, icv measured on day 14 by ELISA. In kind it is functional, organism-based. The conditions noted are these: dose 0.5-10 mg/kg.

With `CCCN(CCC)Cc1ccccc1CNC(=O)c1cccc(NC(=O)c2cccs2)c1`, in [1], the result was Active.

For the molecule `CCN(CC)Cc1ccccc1CNC(=O)c1cc(C)cc(NC(=O)c2ccc(F)cc2)c1`, the result in [2], in assay [3], in [4], in assay [6] and in assay [7] was Active. For the same molecule, the Activity entry in [5] is “Dde”.

Take `COc1ccc2c3c1O[C@H]1C[C@@H](O)C=C[C@@]31CCN(C)C2`: the result in [8] and in [9] was Active.

Regarding `CCN(CC)Cc1ccccc1CNC(=O)c1cc(Br)cc(NC(=O)c2ccc(F)cc2)c1`, the Activity entry in [10] was “Dde”.

`CCN(C)C(=O)Oc1cccc([C@H](C)N(C)C)c1`: the outcome in assay [8] and in [9] was Active.

For `CN(C)Cc1ccccc1CNC(=O)c1cccc(NC(=O)c2cccs2)c1`, in assay [1], the outcome was Active.

As for `CCN(CC)Cc1ccccc1CNC(=O)c1cccc(NC(=O)c2ccc(F)cc2)c1C`, in assay [2], the result was Active.

For the molecule `CCN(CC)Cc1ccccc1CNC(=O)c1cccc(NC(=O)c2ccc(F)cc2)c1`, the result in assay [2], in [3], in [4], in assay [13], in assay [1] and in assay [6] was Active. The result in assay [7] was Active. Besides, the Activity entry in assay [11] and in assay [12] was “Dde” in each case.
